What all share (assay): biochemical
What all share (set-up): endogenous in cells; host or cells: K562 cell extract; species or system K562 (extract); replicate k of n = 2 (each experiment ID is one independent experiment; two experiment IDs per compound)
Conditions in all cases: read-out: KDapp

The target of experiment [1] is CHEK2 (Homo sapiens, UniProt O96017).
The target of experiment [2] is CLK1 (Homo sapiens, UniProt P49759).
Experiment [3] concerns the target CSNK2A1 (Homo sapiens, UniProt P68400).
The target in experiment [4] is DYRK1A (Homo sapiens, UniProt Q13627).
The target in experiment [5] is FER (Homo sapiens, UniProt P16591).
In experiment [6] the target is T1, ITK (Homo sapiens, UniProt Q08881).
T1 sequence (Q08881 1-620): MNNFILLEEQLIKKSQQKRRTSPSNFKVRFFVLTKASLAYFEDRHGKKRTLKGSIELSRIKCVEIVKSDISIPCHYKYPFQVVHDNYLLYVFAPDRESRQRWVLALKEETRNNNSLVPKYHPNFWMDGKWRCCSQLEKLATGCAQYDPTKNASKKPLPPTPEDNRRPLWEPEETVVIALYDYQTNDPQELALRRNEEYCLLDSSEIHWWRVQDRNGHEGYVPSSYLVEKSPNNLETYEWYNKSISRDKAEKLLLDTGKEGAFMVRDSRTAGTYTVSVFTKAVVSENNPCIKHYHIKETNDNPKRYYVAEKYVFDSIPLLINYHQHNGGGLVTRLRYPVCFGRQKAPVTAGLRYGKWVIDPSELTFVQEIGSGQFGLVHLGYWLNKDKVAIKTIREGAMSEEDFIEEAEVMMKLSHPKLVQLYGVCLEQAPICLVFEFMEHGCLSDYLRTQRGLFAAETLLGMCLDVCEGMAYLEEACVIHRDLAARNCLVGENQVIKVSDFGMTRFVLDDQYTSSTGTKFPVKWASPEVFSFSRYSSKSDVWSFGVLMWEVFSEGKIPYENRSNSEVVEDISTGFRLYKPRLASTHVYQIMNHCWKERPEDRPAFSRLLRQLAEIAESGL

Experiment [7] concerns the target MAP3K4 (Homo sapiens, UniProt Q9Y6R4).
Experiment [8] deals with MELK (Homo sapiens, UniProt Q14680).
The target in experiment [9] is MINK1 (Homo sapiens, UniProt Q8N4C8).
In experiment [10] the target is PRKAA1 (Homo sapiens, UniProt Q13131).
Experiment [11] has as its target PTK2B (Homo sapiens, UniProt Q14289).
The target of experiment [12] is SLK (Homo sapiens, UniProt Q9H2G2).
The target in experiment [13] is STK39 (Homo sapiens, UniProt Q9UEW8).
The target in experiment [14] is YES1 (Homo sapiens, UniProt P07947).

For three compounds, Kd results are on record in PMC4774911, “Biochemical Screening of Five Protein Kinases from Plasmodium falciparum against 14,000 Cell-Active Compounds” (PLoS ONE, 2016).

Structures are written as SMILES. pKd: −log10 of the molar value. Several values for one entry are separate records, joined by “and”; a condition that tells them apart may be missing. Equal entries are not always repeated.

PTK2B, sequence (Q14289 whole entry): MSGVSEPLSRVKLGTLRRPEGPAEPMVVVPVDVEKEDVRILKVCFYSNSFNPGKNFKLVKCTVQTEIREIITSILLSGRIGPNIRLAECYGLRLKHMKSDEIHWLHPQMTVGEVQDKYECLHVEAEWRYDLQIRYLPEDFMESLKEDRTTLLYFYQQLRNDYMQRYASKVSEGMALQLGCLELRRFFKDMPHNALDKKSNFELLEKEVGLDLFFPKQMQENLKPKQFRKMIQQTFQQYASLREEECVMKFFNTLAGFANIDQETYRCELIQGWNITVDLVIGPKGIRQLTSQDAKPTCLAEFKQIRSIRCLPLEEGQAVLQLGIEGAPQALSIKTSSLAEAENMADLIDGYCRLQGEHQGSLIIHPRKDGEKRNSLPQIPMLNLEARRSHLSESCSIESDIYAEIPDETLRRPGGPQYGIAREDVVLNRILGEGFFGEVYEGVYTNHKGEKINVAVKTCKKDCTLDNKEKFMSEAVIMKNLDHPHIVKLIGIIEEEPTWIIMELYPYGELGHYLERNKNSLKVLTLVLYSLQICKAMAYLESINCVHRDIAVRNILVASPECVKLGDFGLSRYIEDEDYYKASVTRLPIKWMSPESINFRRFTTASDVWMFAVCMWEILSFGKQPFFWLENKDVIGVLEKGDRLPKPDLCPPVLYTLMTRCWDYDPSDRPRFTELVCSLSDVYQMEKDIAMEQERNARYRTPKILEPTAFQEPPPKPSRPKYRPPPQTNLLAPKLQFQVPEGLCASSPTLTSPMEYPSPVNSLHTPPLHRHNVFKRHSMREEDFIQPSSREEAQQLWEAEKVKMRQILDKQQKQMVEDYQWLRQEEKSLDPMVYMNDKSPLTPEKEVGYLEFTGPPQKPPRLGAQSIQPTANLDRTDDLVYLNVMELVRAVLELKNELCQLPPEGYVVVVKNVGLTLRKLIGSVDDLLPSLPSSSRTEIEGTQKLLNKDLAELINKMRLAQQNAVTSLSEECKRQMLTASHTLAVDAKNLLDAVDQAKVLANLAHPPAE
YES1, sequence (P07947 whole entry): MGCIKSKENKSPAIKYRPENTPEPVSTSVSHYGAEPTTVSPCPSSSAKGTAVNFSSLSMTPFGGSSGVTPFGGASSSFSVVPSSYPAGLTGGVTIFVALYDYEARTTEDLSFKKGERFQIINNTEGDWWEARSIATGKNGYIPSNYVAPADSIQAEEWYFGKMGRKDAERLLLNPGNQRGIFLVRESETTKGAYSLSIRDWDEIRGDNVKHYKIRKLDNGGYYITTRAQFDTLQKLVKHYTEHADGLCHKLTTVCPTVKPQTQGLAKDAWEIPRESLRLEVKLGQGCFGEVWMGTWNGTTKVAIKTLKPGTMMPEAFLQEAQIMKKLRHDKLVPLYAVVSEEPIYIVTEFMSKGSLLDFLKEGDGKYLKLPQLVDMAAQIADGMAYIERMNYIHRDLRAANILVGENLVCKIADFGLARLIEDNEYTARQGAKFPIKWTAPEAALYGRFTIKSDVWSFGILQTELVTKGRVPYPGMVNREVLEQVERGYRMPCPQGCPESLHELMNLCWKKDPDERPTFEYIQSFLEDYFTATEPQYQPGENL
SLK, sequence (Q9H2G2 whole entry): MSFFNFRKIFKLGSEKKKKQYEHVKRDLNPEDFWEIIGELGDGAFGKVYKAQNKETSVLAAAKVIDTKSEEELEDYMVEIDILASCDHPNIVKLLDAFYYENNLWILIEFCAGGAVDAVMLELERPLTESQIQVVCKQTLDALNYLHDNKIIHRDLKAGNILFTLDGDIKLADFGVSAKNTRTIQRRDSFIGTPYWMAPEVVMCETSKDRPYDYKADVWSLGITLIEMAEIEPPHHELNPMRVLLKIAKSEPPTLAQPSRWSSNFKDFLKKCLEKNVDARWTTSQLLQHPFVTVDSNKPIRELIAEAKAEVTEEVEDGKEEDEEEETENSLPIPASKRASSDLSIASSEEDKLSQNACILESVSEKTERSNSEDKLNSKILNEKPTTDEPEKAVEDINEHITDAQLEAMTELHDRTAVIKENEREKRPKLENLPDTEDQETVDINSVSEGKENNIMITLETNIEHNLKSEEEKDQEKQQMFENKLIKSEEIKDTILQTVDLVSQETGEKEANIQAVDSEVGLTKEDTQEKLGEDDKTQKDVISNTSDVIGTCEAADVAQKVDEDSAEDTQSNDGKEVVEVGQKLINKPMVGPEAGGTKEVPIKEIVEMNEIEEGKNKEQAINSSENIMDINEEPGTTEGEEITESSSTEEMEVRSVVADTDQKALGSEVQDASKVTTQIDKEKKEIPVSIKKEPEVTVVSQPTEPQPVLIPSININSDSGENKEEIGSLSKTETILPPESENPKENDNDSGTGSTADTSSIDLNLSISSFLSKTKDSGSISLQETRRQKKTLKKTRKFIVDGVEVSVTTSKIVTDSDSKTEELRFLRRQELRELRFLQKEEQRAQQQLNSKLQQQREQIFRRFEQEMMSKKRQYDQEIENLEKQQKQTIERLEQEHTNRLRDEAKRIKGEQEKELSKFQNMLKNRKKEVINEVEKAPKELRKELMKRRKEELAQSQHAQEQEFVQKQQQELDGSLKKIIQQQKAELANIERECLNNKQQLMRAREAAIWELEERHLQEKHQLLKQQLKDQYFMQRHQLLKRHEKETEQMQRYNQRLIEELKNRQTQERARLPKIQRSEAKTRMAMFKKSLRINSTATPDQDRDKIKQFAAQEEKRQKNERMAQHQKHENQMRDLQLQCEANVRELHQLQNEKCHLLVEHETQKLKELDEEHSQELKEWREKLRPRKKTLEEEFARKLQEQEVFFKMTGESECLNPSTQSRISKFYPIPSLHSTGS
CLK1, sequence (P49759 whole entry): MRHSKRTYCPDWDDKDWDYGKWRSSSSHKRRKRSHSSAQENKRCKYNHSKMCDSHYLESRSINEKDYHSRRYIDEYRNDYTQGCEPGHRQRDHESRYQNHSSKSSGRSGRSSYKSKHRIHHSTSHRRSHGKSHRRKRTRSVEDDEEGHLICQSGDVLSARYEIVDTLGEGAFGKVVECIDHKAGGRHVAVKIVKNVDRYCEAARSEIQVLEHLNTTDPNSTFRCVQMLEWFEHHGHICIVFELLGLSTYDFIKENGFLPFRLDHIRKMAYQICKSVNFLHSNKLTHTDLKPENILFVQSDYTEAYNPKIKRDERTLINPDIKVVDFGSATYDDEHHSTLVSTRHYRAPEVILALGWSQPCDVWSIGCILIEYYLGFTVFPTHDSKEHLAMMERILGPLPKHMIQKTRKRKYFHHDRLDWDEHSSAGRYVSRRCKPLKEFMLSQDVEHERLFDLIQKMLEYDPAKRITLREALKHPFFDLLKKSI
MAP3K4, sequence (Q9Y6R4 whole entry): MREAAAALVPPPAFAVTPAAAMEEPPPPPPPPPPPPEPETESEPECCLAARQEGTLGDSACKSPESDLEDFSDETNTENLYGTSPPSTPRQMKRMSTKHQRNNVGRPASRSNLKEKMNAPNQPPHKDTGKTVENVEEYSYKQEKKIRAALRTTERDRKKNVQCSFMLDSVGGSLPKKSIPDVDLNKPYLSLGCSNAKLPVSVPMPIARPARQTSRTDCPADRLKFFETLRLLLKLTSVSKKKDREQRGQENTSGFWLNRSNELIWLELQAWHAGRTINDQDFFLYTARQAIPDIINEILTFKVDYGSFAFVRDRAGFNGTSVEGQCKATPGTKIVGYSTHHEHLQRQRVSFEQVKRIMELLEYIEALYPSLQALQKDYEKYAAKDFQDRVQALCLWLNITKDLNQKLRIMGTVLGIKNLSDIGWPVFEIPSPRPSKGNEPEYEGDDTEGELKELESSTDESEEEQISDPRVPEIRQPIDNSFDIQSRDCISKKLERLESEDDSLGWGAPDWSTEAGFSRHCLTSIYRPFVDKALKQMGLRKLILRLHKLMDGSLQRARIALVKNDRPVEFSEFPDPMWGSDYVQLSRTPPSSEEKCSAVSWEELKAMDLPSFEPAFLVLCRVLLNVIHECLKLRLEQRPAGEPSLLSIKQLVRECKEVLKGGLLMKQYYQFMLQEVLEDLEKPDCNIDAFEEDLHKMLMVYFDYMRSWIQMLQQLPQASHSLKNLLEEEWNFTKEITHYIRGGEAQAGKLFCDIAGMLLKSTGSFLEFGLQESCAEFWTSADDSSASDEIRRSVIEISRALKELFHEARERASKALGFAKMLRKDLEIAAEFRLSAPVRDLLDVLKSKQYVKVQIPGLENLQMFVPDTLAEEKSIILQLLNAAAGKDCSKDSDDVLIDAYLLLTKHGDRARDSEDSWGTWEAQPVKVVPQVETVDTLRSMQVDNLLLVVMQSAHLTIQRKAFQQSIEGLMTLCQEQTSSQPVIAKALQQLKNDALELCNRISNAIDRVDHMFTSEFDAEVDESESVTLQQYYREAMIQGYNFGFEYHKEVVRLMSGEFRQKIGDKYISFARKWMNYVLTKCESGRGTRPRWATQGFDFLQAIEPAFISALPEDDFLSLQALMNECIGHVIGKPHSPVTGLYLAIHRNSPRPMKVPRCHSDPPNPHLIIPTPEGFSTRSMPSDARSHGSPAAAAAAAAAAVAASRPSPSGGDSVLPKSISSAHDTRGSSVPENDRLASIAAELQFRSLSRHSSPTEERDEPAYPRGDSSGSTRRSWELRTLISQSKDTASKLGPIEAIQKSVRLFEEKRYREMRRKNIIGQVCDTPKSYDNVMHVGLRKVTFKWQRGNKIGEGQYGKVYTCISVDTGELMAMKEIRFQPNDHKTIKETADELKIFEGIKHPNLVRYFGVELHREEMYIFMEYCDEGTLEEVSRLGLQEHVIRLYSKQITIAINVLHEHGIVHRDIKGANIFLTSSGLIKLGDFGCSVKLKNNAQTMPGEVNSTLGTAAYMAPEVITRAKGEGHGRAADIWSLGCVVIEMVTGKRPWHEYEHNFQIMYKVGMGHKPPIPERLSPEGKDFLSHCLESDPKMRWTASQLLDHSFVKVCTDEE

Regarding `CN1CCN(c2ccc(Nc3ncc(C#N)c(Nc4ccccc4C(N)=O)n3)cc2)CC1.Cl` [TCMDC-134116], the pKd is 6.86 in experiment [1]; 7.68 in experiment [2]; 7.63 in experiment [3]; 6.54 and 6.58 in [4]; 7.10 and 7.12 in experiment [5]; 7.41 in [6]. Further, the pKd was 7.70 and 7.59 in [7]; 6.89 and 6.90 in experiment [8]; 6.76 in experiment [9]; 7.85 and 7.74 in experiment [10]; 7.55 and 7.45 in experiment [11]; 7.55 and 7.47 in experiment [12]. Also, the pKd in experiment [13] was 7.24; in [14], 7.39 and 7.29.

On to `Cl.NCC1(c2nc(-c3ccc(Cl)c(O)c3)c(-c3ccncc3)[nH]2)CCCCC1` [TCMDC-141154], for which the pKd in [8] is 5.77 and 5.79; in [9], 6.08; in experiment [14] it was 5.83 and 5.58.

As for `CN(C)CC(O)COc1ccc(Nc2ncc([N+](=O)[O-])c(Nc3ccccc3O)n2)cc1.O=C(O)C(F)(F)F` (stereo not shown) [TCMDC-141399], the pKd in experiment [1] was 5.04; in experiment [2] it was 6.77 and 6.93; in experiment [3], 7.20; in experiment [4], 5.54; in [5], 6.47 and 6.53; in experiment [6] it was 6.33. The pKd in experiment [7] is 6.37; in [10], 5.58 and 5.54; in [11], 6.89 and 6.76; in experiment [12], 6.28 and 6.23; in [13], 5.32.
